Where two headings read alike, the source gives them in different places.
Tests used:
SOS1 in K562 cells = target: T1, SOS1 in K562 cells (Homo sapiens, UniProt Q07889); test: SOS1 degradation in K562 cells (Western blot); format: cell-based
T1 construct: endogenous in cells; host or cells: K562
T1 sequence (Q07889 1-1333): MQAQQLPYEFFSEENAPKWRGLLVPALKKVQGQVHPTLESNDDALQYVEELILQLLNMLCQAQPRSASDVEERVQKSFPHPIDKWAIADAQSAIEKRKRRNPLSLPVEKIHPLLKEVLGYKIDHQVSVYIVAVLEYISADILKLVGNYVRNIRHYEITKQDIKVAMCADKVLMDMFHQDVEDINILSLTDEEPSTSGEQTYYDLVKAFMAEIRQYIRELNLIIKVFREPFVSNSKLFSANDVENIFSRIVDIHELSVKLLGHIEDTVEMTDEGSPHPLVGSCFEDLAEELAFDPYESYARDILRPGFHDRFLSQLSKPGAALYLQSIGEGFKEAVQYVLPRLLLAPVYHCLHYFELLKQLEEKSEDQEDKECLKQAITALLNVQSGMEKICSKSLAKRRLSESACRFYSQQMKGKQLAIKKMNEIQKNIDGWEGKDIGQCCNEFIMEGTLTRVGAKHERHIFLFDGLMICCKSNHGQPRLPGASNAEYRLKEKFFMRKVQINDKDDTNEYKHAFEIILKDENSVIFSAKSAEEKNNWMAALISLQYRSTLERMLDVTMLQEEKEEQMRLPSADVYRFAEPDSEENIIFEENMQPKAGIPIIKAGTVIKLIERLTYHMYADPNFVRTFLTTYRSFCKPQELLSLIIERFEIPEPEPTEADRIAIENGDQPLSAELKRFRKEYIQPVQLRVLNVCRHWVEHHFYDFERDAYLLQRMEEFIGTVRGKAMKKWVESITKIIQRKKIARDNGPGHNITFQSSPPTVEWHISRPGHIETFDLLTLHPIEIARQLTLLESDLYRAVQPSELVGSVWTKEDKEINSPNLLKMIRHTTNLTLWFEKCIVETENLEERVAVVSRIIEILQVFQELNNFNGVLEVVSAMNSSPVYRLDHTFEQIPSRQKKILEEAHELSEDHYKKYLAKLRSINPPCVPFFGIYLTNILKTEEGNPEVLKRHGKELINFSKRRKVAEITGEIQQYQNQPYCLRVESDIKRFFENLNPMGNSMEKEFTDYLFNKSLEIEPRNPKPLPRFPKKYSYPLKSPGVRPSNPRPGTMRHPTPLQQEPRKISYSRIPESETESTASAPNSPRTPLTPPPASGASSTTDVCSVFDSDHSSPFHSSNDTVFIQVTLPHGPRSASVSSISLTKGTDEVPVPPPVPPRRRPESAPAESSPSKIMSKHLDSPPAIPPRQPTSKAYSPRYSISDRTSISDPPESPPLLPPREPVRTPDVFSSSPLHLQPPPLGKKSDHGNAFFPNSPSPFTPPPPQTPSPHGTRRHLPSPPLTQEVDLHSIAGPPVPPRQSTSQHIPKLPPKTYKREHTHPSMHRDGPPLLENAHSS
Text: After treatment, the cells were harvested with SDS lysis buffer, and SDS-PAGE gels were used to split the proteins in the lysate solutions. […] AB_2758039).

K562 cells = test: Proliferation, K562; format: cell-based, human; conditions: Table S1 screening, read-out: IC50 (cell proliferation inhibition in K562 cells)
Procedure: Cells were inoculated onto 96-well plates and treated with compounds in serial dilutions for 3 or 5 days. […] The cell viability of primary patient samples was tested using the CellTiter-Glo Luminescent Assay kit (G7573, Promega) according to the manufacturer’s instructions. […] The optical density (OD) values were obtained using a SPARK microplate reader (Tecan). IC50 was calculated using GraphPad Prism 8.0.2 (nonlinear regression analysis with four parameters). Drug synergy was evaluated with combination index (CI) values using CalcuSyn Demo Version 2.0 software. CI > 1 indicates antagonism, CI < 1 indicates synergy, and CI = 1 indicates additivity.

Row | Structure (SMILES) | Degradation of SOS1 (%) (SOS1 in K562 cells; 0.1 μM) | Degradation of SOS1 (%) (SOS1 in K562 cells; 1.0 μM) | IC50 (K562 cells) | percent SOS1 degradation at 0.1 µM (SOS1 in K562 cells; 0.1 μM) | percent SOS1 degradation at 1 µM (SOS1 in K562 cells; 1.0 μM) | IC50 (K562 cells; Homo sapiens, K562)
1 | COc1cc2nc(C)nc(N[C@H](C)c3cc(N)cc(C(F)(F)F)c3)c2cc1O[C@H]1CCN(CCCSc2cccc3c2CN(C2CCC(=O)NC2=O)C3=O)C1 (stereo partly drawn) [SIAIS561084] | 7.3 ± 8.5% | -19.5 ± 2.2% | 1.31 ± 0.176 µM | – | – | –
2 | COc1cc2nc(C)nc(N[C@H](C)c3cc(N)cc(C(F)(F)F)c3)c2cc1O[C@H]1CCN(C(=O)CCCCSc2cccc3c2CN(C2CCC(=O)NC2=O)C3=O)C1 (stereo partly drawn) [SIAIS561086] | – | – | – | 22.7 ± 1.7% | 33.5 ± 4.7% | 7.69 ± 0.0912 µM
3 | COc1cc2nc(C)nc(N[C@H](C)c3cc(N)cc(C(F)(F)F)c3)c2cc1O[C@H]1CCN(C(=O)CCCCCSc2cccc3c2CN(C2CCC(=O)NC2=O)C3=O)C1 (stereo partly drawn) [SIAIS561087] | – | – | – | 53.5 ± 0.6% | 39.9 ± 0.9% | 6.51 ± 0.514 µM
4 | COc1cc2nc(C)nc(N[C@H](C)c3cc(N)cc(C(F)(F)F)c3)c2cc1O[C@H]1CCN(CCSc2cccc3c2CN(C2CCC(=O)NC2=O)C3=O)C1 (stereo partly drawn) [SIAIS561091] | 36.2 ± 5.7% | 27.0 ± 7.5% | 1.2 ± 0.0658 µM | – | – | –
5 | COc1cc2nc(C)nc(N[C@H](C)c3cc(N)cc(C(F)(F)F)c3)c2cc1O[C@H]1CCN(C(=O)CSc2cccc3c2CN(C2CCC(=O)NC2=O)C3=O)C1 (stereo partly drawn) [SIAIS561092] | – | – | – | -26.5 ± 8.3% | 8.1 ± 2.3% | 7.29 ± 1.01 µM
6 | COc1cc2nc(C)nc(N[C@H](C)c3cc(N)cc(C(F)(F)F)c3)c2cc1O[C@H]1CCN(C(=O)CCSc2cccc3c2CN(C2CCC(=O)NC2=O)C3=O)C1 (stereo partly drawn) [SIAIS561093] | – | – | – | 19.9 ± 1.8% | 24.7 ± 4.4% | 16.4 ± 2.44 µM
7 | COc1cc2nc(C)nc(N[C@H](C)c3cc(N)cc(C(F)(F)F)c3)c2cc1O[C@H]1CCN(C(=O)CCCSc2cccc3c2CN(C2CCC(=O)NC2=O)C3=O)C1 (stereo partly drawn) [SIAIS561094] | – | – | – | 32.9 ± 0.4% | 35.3 ± 0.6% | 7.13 ± 0.224 µM
8 | COc1cc2nc(C)nc(N[C@H](C)c3cc(N)cc(C(F)(F)F)c3)c2cc1O[C@H]1CCN(C(=O)CCCCCCSc2cccc3c2CN(C2CCC(=O)NC2=O)C3=O)C1 (stereo partly drawn) [SIAIS561095] | – | – | – | 26.7 ± 3% | 3.9 ± 4.7% | 5.23 ± 1.39 µM
9 | COc1cc2nc(C)nc(N[C@H](C)c3cc(N)cc(C(F)(F)F)c3)c2cc1O[C@H]1CCN(C(=O)CCCCCCCSc2cccc3c2CN(C2CCC(=O)NC2=O)C3=O)C1 (stereo partly drawn) [SIAIS561096] | – | – | – | 57.2 ± 0.7% | 49.7 ± 0.9% | 1.55 ± 0.0714 µM
10 | COc1cc2nc(C)nc(N[C@H](C)c3cc(N)cc(C(F)(F)F)c3)c2cc1O[C@H]1CCN(C(=O)CCCCCCCCCSc2cccc3c2CN(C2CCC(=O)NC2=O)C3=O)C1 (stereo partly drawn) [SIAIS561097] | – | – | – | -10.2 ± 5.5% | -20.9 ± 9% | 15.1 ± 2.04 µM
11 | COc1cc2nc(C)nc(N[C@H](C)c3cc(N)cc(C(F)(F)F)c3)c2cc1O[C@H]1CCN(C(=O)CCCCCCCCCCSc2cccc3c2CN(C2CCC(=O)NC2=O)C3=O)C1 (stereo partly drawn) [SIAIS561098] | – | – | – | 1.1 ± 1% | 17 ± 2.2% | 11.5 ± 0.515 µM
12 | COc1cc2nc(C)nc(N[C@H](C)c3cc(N)cc(C(F)(F)F)c3)c2cc1OC1CCN(C(=O)CSc2cccc3c2CN(C2CCC(=O)NC2=O)C3=O)CC1 (stereo partly drawn) [SIAIS561131] | – | – | – | 12.3 ± 6.5% | -2.3 ± 9.5% | 17.8 ± 3.9 µM
13 | COc1cc2nc(C)nc(N[C@H](C)c3cc(N)cc(C(F)(F)F)c3)c2cc1OC1CCN(C(=O)CCSc2cccc3c2CN(C2CCC(=O)NC2=O)C3=O)CC1 (stereo partly drawn) [SIAIS561132] | – | – | – | -14.7 ± 10.2% | -3.8 ± 4.2% | 0.112 ± 0.0042 µM
14 | COc1cc2nc(C)nc(N[C@H](C)c3cc(N)cc(C(F)(F)F)c3)c2cc1OC1CCN(C(=O)CCCSc2cccc3c2CN(C2CCC(=O)NC2=O)C3=O)CC1 (stereo partly drawn) [SIAIS561133] | – | – | – | -26.7 ± 1.7% | -4 ± 11.7% | 1.67 ± 0.0177 µM
15 | COc1cc2nc(C)nc(N[C@H](C)c3cc(N)cc(C(F)(F)F)c3)c2cc1OC1CCN(C(=O)CCCCSc2cccc3c2CN(C2CCC(=O)NC2=O)C3=O)CC1 (stereo partly drawn) [SIAIS561134] | – | – | – | 5.2 ± 12.8% | 14.2 ± 11.1% | 3.6 ± 0.103 µM
16 | COc1cc2nc(C)nc(N[C@H](C)c3cc(N)cc(C(F)(F)F)c3)c2cc1OC1CCN(C(=O)CCCCCSc2cccc3c2CN(C2CCC(=O)NC2=O)C3=O)CC1 (stereo partly drawn) [SIAIS561135] | – | – | – | 11.3 ± 4.8% | 12.7 ± 6.3% | 1.85 ± 0.455 µM
17 | COc1cc2nc(C)nc(N[C@H](C)c3cc(N)cc(C(F)(F)F)c3)c2cc1OC1CCN(C(=O)CCCCCCSc2cccc3c2CN(C2CCC(=O)NC2=O)C3=O)CC1 (stereo partly drawn) [SIAIS561136] | – | – | – | 18.2 ± 6.2% | 49.3 ± 2.2% | 2.53 ± 0.261 µM
18 | COc1cc2nc(C)nc(N[C@H](C)c3cc(N)cc(C(F)(F)F)c3)c2cc1OC1CCN(C(=O)CCCCCCCCCSc2cccc3c2CN(C2CCC(=O)NC2=O)C3=O)CC1 (stereo partly drawn) [SIAIS561137] | – | – | – | 3.6 ± 3.2% | 15.7 ± 3% | 3.06 ± 1.1 µM
19 | COc1cc2nc(C)nc(N[C@H](C)c3cc(N)cc(C(F)(F)F)c3)c2cc1OC1CCN(C(=O)CCCCCCCCCCSc2cccc3c2CN(C2CCC(=O)NC2=O)C3=O)CC1 (stereo partly drawn) [SIAIS561138] | – | – | – | -14.6 ± 1.1% | 11 ± 0.6% | 8.97 ± 0.146 µM
20 | COc1cc2nc(C)nc(N[C@H](C)c3cc(N)cc(C(F)(F)F)c3)c2cc1OC1CCN(C(=O)CCCCCCCSc2cccc3c2CN(C2CCC(=O)NC2=O)C3=O)CC1 (stereo partly drawn) [SIAIS561139] | – | – | – | -15.2 ± 2% | 7.7 ± 4.3% | 2.75 ± 0.36 µM
21 | COc1cc2nc(C)nc(N[C@H](C)c3cc(N)cc(C(F)(F)F)c3)c2cc1O[C@H]1CCN(CCCCCCCCCCCSc2cccc3c2CN(C2CCC(=O)NC2=O)C3=O)C1 (stereo partly drawn) [SIAIS562019] | – | – | – | 4.6 ± 1.8% | 38.7 ± 1.1% | 0.846 ± 0.157 µM
22 | COc1cc2nc(C)nc(N[C@H](C)c3cc(N)cc(C(F)(F)F)c3)c2cc1O[C@H]1CCN(CCCCCCCCCCCCSc2cccc3c2CN(C2CCC(=O)NC2=O)C3=O)C1 (stereo partly drawn) [SIAIS562020] | – | – | – | 30.4 ± 0.3% | 86.4 ± 0.4% | 0.822 ± 0.083 µM
23 | COc1cc2nc(C)nc(N[C@H](C)c3cc(N)cc(C(F)(F)F)c3)c2cc1O[C@H]1CCN(C(=O)CCCCCCCCSc2cccc3c2CN(C2CCC(=O)NC2=O)C3=O)C1 (stereo partly drawn) [SIAIS562079] | – | – | – | 44.4 ± 6.5% | 49.7 ± 14% | 7.08 ± 0.216 µM

— PMC11694061 (Cancer Research, 2024)
